Experimental data: ChEMBL document CHEMBL1201862, “PubChem BioAssay data set” (2004)
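Cultured in 96-well plates, cells were exposed to test compound for 48 hours across five concentrations. The concentration for 50% growth inhibition is given as GI50.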 Activity calls are given as the source filed them. Cut-off read from the data, not from the text of the source: active = GI50 up to about 1.1 µM and inactive = higher.

Assays:
Assay in all cases: NCI tumour cell line growth inhibition, 48 h
786-0 = tested on: 786-0
COLO 205 = tested on: COLO 205
HCC 2998 = tested on: HCC 2998
K562 = tested on: K562
KM12 = tested on: KM12
LOX IMVI = tested on: LOX IMVI
NCI-H23 = tested on: NCI-H23
NCI-H522 = tested on: NCI-H522
OVCAR-3 = tested on: OVCAR-3
OVCAR-4 = tested on: OVCAR-4
OVCAR-8 = tested on: OVCAR-8
RPMI-8226 = tested on: RPMI-8226
RXF 393 = tested on: RXF 393
SK-MEL-2 = tested on: SK-MEL-2
SW-620 = tested on: SW-620
UACC-62 = tested on: UACC-62
UO-31 = tested on: UO-31

Measured: GI50

CCN1CCC(O)(c2ccccc2)C(C(=O)c2ccccc2)C1 (stereo unspecified)
inactive: 786-0 17.1 µM | COLO 205 22.4 µM | HCC 2998 > 100 µM | K562 23.7 µM | KM12 45.4 µM | LOX IMVI 17.4 µM | NCI-H23 > 53 µM | NCI-H522 2.62 µM | OVCAR-3 16.3 µM | OVCAR-4 18.2 µM | OVCAR-8 26.4 µM | RPMI-8226 6.35 µM | RXF 393 15.5 µM | SK-MEL-2 > 100 µM | SW-620 17.6 µM | UACC-62 > 45.3 µM | UO-31 > 46.2 µM

S=c1sc2sc(=S)sc2s1
inactive: 786-0 68.4 µM | COLO 205 84.9 µM | HCC 2998 > 100 µM | K562 22.3 µM | KM12 > 100 µM | LOX IMVI 33.5 µM | NCI-H522 33.1 µM | OVCAR-4 > 100 µM | OVCAR-8 50.1 µM | RPMI-8226 23.1 µM | RXF 393 35.6 µM | SK-MEL-2 > 100 µM | SW-620 > 100 µM | UACC-62 37.2 µM | UO-31 30 µM

NCC1(N2CCOCC2)C2CCCC21CNc1ccccc1 (stereo unspecified)
inactive: 786-0 > 100 µM | COLO 205 > 100 µM | HCC 2998 61 µM | K562 90.6 µM | KM12 > 100 µM | LOX IMVI > 100 µM | NCI-H23 > 100 µM | NCI-H522 > 100 µM | OVCAR-3 > 100 µM | OVCAR-4 > 100 µM | OVCAR-8 > 100 µM | RXF 393 56.4 µM | SW-620 > 100 µM | UACC-62 > 100 µM | UO-31 > 100 µM

CC1=NN(C(=O)CC(=O)Nc2ccccc2F)C(=O)C1/N=N/c1ccccc1[N+](=O)[O-] (stereo unspecified)
inactive: 786-0 > 100 µM | COLO 205 > 100 µM | K562 > 100 µM | KM12 > 100 µM | NCI-H23 94.6 µM | NCI-H522 51.8 µM | OVCAR-3 96.4 µM | OVCAR-4 70.6 µM | OVCAR-8 58.5 µM | RPMI-8226 > 100 µM | RXF 393 45.1 µM | SK-MEL-2 > 100 µM | SW-620 > 100 µM | UACC-62 26.2 µM | UO-31 81.1 µM

C=C1CN2CCc3c([nH]c4ccccc34)C2CC1CC(=O)N(C)C (stereo unspecified)
inactive: 786-0 > 309 µM | COLO 205 > 309 µM | HCC 2998 > 309 µM | K562 > 309 µM | KM12 > 309 µM | LOX IMVI > 309 µM | NCI-H23 > 309 µM | NCI-H522 > 309 µM | OVCAR-3 > 309 µM | OVCAR-8 > 309 µM | RPMI-8226 > 309 µM | RXF 393 > 309 µM | SK-MEL-2 > 309 µM | SW-620 > 309 µM | UACC-62 > 309 µM

O=C(O)CC12C3C4C5C3C1C5C42 (stereo unspecified)
inactive: 786-0 > 100 µM | COLO 205 > 100 µM | HCC 2998 > 100 µM | K562 > 100 µM | KM12 > 100 µM | LOX IMVI > 100 µM | NCI-H23 > 100 µM | NCI-H522 > 100 µM | OVCAR-3 > 100 µM | OVCAR-4 > 100 µM | OVCAR-8 > 100 µM | RPMI-8226 > 100 µM | SK-MEL-2 > 100 µM | SW-620 > 100 µM | UACC-62 > 100 µM | UO-31 68.9 µM

CC(=O)OC1COC(n2ccc3cc(Br)c([N+](=O)[O-])cc32)C(OC(C)=O)C1OC(C)=O (stereo unspecified)
inactive: 786-0 33.3 µM | COLO 205 23.7 µM | HCC 2998 24 µM | K562 29.6 µM | KM12 34.2 µM | LOX IMVI 20.1 µM | NCI-H23 23.3 µM | NCI-H522 > 10 µM | OVCAR-3 23.8 µM | OVCAR-4 > 10 µM | OVCAR-8 22.4 µM | RPMI-8226 22.5 µM | RXF 393 24.7 µM | SK-MEL-2 > 10 µM | SW-620 39.5 µM | UACC-62 17.6 µM | UO-31 12.6 µM

CC1(Cl)C(=O)NC(=O)N(C2CC(N=[N+]=[N-])C(CO)O2)C1N=[N+]=[N-] (stereo unspecified)
inactive: 786-0 > 100 µM | COLO 205 > 100 µM | HCC 2998 > 100 µM | K562 > 100 µM | KM12 > 100 µM | LOX IMVI > 100 µM | NCI-H23 > 100 µM | NCI-H522 > 100 µM | OVCAR-3 > 100 µM | OVCAR-4 > 100 µM | OVCAR-8 > 100 µM | RPMI-8226 > 100 µM | RXF 393 > 100 µM | SK-MEL-2 > 100 µM | SW-620 > 100 µM | UACC-62 > 100 µM | UO-31 > 100 µM

CCOC(=O)C(CNc1ccc(O)cc1)NC(=O)c1ccccc1 (stereo unspecified)
inactive: 786-0 64.3 µM | COLO 205 > 100 µM | HCC 2998 > 100 µM | K562 37.8 µM | KM12 > 100 µM | LOX IMVI 99.8 µM | NCI-H23 > 100 µM | NCI-H522 75.3 µM | OVCAR-3 > 100 µM | OVCAR-4 > 66.2 µM | OVCAR-8 > 100 µM | RPMI-8226 53.6 µM | RXF 393 > 100 µM | SK-MEL-2 > 100 µM | SW-620 > 100 µM | UACC-62 > 53.7 µM | UO-31 > 100 µM

CC(=O)/C(=C\c1ccco1)C(=O)Nc1ccccc1
inactive: 786-0 > 100 µM | HCC 2998 > 100 µM | K562 > 100 µM | KM12 > 100 µM | LOX IMVI > 100 µM | NCI-H23 > 100 µM | NCI-H522 > 100 µM | OVCAR-3 > 100 µM | OVCAR-4 > 100 µM | OVCAR-8 > 100 µM | RPMI-8226 > 100 µM | RXF 393 > 100 µM | SK-MEL-2 > 100 µM | SW-620 > 100 µM | UACC-62 > 100 µM | UO-31 > 100 µM

CCN(CC)c1c(C)nnn1C1OC(COC(C)=O)C(OC(C)=O)C(OC(C)=O)C1OC(C)=O (stereo unspecified)
inactive: 786-0 > 100 µM | COLO 205 > 100 µM | HCC 2998 > 100 µM | K562 > 100 µM | KM12 > 100 µM | NCI-H23 > 100 µM | NCI-H522 > 100 µM | OVCAR-3 > 100 µM | OVCAR-4 > 100 µM | OVCAR-8 > 100 µM | RPMI-8226 28.6 µM | SW-620 15 µM | UACC-62 > 100 µM | UO-31 > 100 µM

O=C1OC(c2ccccc2)=N/C1=C/N1CCCC1C(=O)O (stereo unspecified)
inactive: 786-0 > 100 µM | COLO 205 > 100 µM | HCC 2998 > 100 µM | K562 > 100 µM | KM12 > 100 µM | LOX IMVI > 100 µM | NCI-H23 > 100 µM | NCI-H522 > 100 µM | OVCAR-3 > 100 µM | OVCAR-4 > 100 µM | OVCAR-8 > 100 µM | RPMI-8226 > 100 µM | RXF 393 > 100 µM | SK-MEL-2 > 100 µM | SW-620 > 100 µM | UACC-62 > 100 µM | UO-31 > 100 µM
